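Where inhibition never reached the appropriate level, the endpoint shown equals the highest concentration tested. Otherwise, values were interpolated linearly from a five-concentration, 48-hour dose response in 96-well plates. Here, GI50 denotes the concentration required for 50% inhibition of growth.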 Activity calls are given as the source filed them. Rule as the data show it: active = GI50 up to about 1.1 µM and inactive = higher.
Tests used:
Assay in all cases: NCI anticancer screen, dose series, 48 h
BT-549 = test system: BT-549
HOP-92 = test system: HOP-92
T47D = test system: T47D
RPMI-8226 = test system: RPMI-8226
SK-MEL-28 = test system: SK-MEL-28
SN12C = test system: SN12C
SK-MEL-2 = test system: SK-MEL-2
MOLT-4 = test system: MOLT-4
NCI/ADR-RES = test system: NCI/ADR-RES
MDA-MB-435 = test system: MDA-MB-435
SF-268 = test system: SF-268
SW-620 = test system: SW-620
MCF7 = test system: MCF7
CAKI-1 = test system: CAKI-1
TK-10 = test system: TK-10
OVCAR-4 = test system: OVCAR-4
HCT-116 = test system: HCT-116
SF-539 = test system: SF-539
SNB-75 = test system: SNB-75
SR = test system: SR

Structure (SMILES): NS(=O)(=O)c1ccc(C(=O)O)cc1 [CARZENIDE]
- GI50 (BT-549): > 100 µM (inactive)
- GI50 (HOP-92): 97.5 µM (inactive)
- GI50 (T47D): > 100 µM (inactive)
- GI50 (RPMI-8226): > 100 µM (inactive)
- GI50 (SK-MEL-28): > 100 µM (inactive)
- GI50 (SN12C): > 100 µM (inactive)
- GI50 (SK-MEL-2): > 100 µM (inactive)
- GI50 (MOLT-4): > 100 µM (inactive)
- GI50 (NCI/ADR-RES): > 100 µM (inactive)
- GI50 (MDA-MB-435): > 100 µM (inactive)
- GI50 (SF-268): > 100 µM (inactive)
- GI50 (SW-620): > 100 µM (inactive)
- GI50 (MCF7): > 100 µM (inactive)
- GI50 (CAKI-1): > 100 µM (inactive)
- GI50 (TK-10): > 100 µM (inactive)
- GI50 (OVCAR-4): > 100 µM (inactive)
- GI50 (HCT-116): > 100 µM (inactive)

Structure (SMILES): CC1=C(C(=O)NNC(=O)CC#N)CC(C(=O)NNC(=O)CC#N)=C(C)N1
- GI50 (BT-549): > 100 µM (inactive)
- GI50 (HOP-92): > 100 µM (inactive)
- GI50 (T47D): 93.3 µM (inactive)
- GI50 (SK-MEL-28): > 100 µM (inactive)
- GI50 (SN12C): > 100 µM (inactive)
- GI50 (SK-MEL-2): > 100 µM (inactive)
- GI50 (MOLT-4): > 100 µM (inactive)
- GI50 (NCI/ADR-RES): > 100 µM (inactive)
- GI50 (MDA-MB-435): > 100 µM (inactive)
- GI50 (SF-268): > 100 µM (inactive)
- GI50 (SW-620): > 100 µM (inactive)
- GI50 (MCF7): > 100 µM (inactive)
- GI50 (CAKI-1): > 100 µM (inactive)
- GI50 (TK-10): > 100 µM (inactive)
- GI50 (SF-539): > 100 µM (inactive)
- GI50 (OVCAR-4): > 100 µM (inactive)
- GI50 (SNB-75): > 100 µM (inactive)
- GI50 (HCT-116): > 100 µM (inactive)

Structure (SMILES): CCCCCCCCNC(=O)C1=C(C)NC(C)=C(C(=O)NCCCCCCCC)C1
- GI50 (BT-549): > 100 µM (inactive)
- GI50 (HOP-92): > 100 µM (inactive)
- GI50 (T47D): 48.2 µM (inactive)
- GI50 (RPMI-8226): 71 µM (inactive)
- GI50 (SN12C): > 100 µM (inactive)
- GI50 (SK-MEL-2): > 100 µM (inactive)
- GI50 (MOLT-4): > 100 µM (inactive)
- GI50 (NCI/ADR-RES): > 100 µM (inactive)
- GI50 (MDA-MB-435): 44.8 µM (inactive)
- GI50 (SF-268): > 100 µM (inactive)
- GI50 (SW-620): > 100 µM (inactive)
- GI50 (MCF7): > 100 µM (inactive)
- GI50 (CAKI-1): > 100 µM (inactive)
- GI50 (TK-10): > 100 µM (inactive)
- GI50 (SF-539): > 100 µM (inactive)
- GI50 (OVCAR-4): > 100 µM (inactive)
- GI50 (SNB-75): 23.2 µM (inactive)
- GI50 (HCT-116): > 100 µM (inactive)

Structure (SMILES): CC(C)(C)NNc1c([N+](=O)[O-])cnn(-c2ccccc2)c1=O
- GI50 (BT-549): 1.41 µM (inactive)
- GI50 (HOP-92): 6.5 µM (inactive)
- GI50 (T47D): 2.29 µM (inactive)
- GI50 (RPMI-8226): 3.96 µM (inactive)
- GI50 (SK-MEL-28): 2.49 µM (inactive)
- GI50 (SN12C): 3.14 µM (inactive)
- GI50 (SK-MEL-2): > 10 µM (inactive)
- GI50 (MOLT-4): 2.13 µM (inactive)
- GI50 (MDA-MB-435): 1.81 µM (inactive)
- GI50 (SF-268): 9.82 µM (inactive)
- GI50 (SW-620): 1.76 µM (inactive)
- GI50 (MCF7): 2.92 µM (inactive)
- GI50 (CAKI-1): 8.69 µM (inactive)
- GI50 (TK-10): 22 µM (inactive)
- GI50 (SF-539): 13.2 µM (inactive)
- GI50 (SR): 1.58 µM (inactive)
- GI50 (OVCAR-4): 3.59 µM (inactive)
- GI50 (SNB-75): 9.86 µM (inactive)
- GI50 (HCT-116): 2.46 µM (inactive)

Structure (SMILES): O=C(C1OC1c1ccc(Cl)cc1)C12CC3CC(CC(C3)C1)C2 (configuration not stated)
- GI50 (BT-549): 19.9 µM (inactive)
- GI50 (HOP-92): 16.9 µM (inactive)
- GI50 (T47D): 31.6 µM (inactive)
- GI50 (SK-MEL-28): 16.5 µM (inactive)
- GI50 (SN12C): 14.7 µM (inactive)
- GI50 (SK-MEL-2): 25.5 µM (inactive)
- GI50 (MOLT-4): 20 µM (inactive)
- GI50 (NCI/ADR-RES): 22.9 µM (inactive)
- GI50 (MDA-MB-435): 14.3 µM (inactive)
- GI50 (SF-268): 20.8 µM (inactive)
- GI50 (SW-620): 20.3 µM (inactive)
- GI50 (MCF7): 33.7 µM (inactive)
- GI50 (CAKI-1): 28.8 µM (inactive)
- GI50 (TK-10): 26.7 µM (inactive)
- GI50 (SF-539): 17.3 µM (inactive)
- GI50 (OVCAR-4): 15.4 µM (inactive)
- GI50 (SNB-75): 32.8 µM (inactive)
- GI50 (HCT-116): 12.4 µM (inactive)

Structure (SMILES): C=C(C)C12OC1[C@@]1(C)C(=CC2=O)CCC(O)[C@@H]1C (some centres not stated)
- GI50 (BT-549): 4.19 µM (inactive)
- GI50 (HOP-92): 16.7 µM (inactive)
- GI50 (T47D): 3.16 µM (inactive)
- GI50 (RPMI-8226): 2.43 µM (inactive)
- GI50 (SK-MEL-28): 3.89 µM (inactive)
- GI50 (SN12C): 1.36 µM (inactive)
- GI50 (SK-MEL-2): 2.34 µM (inactive)
- GI50 (MOLT-4): 0.863 µM (active)
- GI50 (MDA-MB-435): 3.29 µM (inactive)
- GI50 (SF-268): 2.14 µM (inactive)
- GI50 (SW-620): 2.39 µM (inactive)
- GI50 (MCF7): 3.53 µM (inactive)
- GI50 (CAKI-1): 0.398 µM (active)
- GI50 (TK-10): 3.73 µM (inactive)
- GI50 (SF-539): 1.97 µM (inactive)
- GI50 (SR): 1.84 µM (inactive)
- GI50 (OVCAR-4): 3.45 µM (inactive)
- GI50 (SNB-75): 3.42 µM (inactive)
- GI50 (HCT-116): 1.15 µM (inactive)

Structure (SMILES): OCCOCCN1CCN(CCCN2c3ccccc3Sc3ccc(C(F)(F)F)cc32)CC1
- GI50 (BT-549): 19.8 µM (inactive)
- GI50 (HOP-92): 14.1 µM (inactive)
- GI50 (T47D): 0.955 µM (active)
- GI50 (RPMI-8226): 3.17 µM (inactive)
- GI50 (SK-MEL-28): 3.27 µM (inactive)
- GI50 (SN12C): 13.6 µM (inactive)
- GI50 (SK-MEL-2): 19.4 µM (inactive)
- GI50 (MOLT-4): 13.1 µM (inactive)
- GI50 (MDA-MB-435): 11.1 µM (inactive)
- GI50 (SF-268): 16.5 µM (inactive)
- GI50 (SW-620): 15.5 µM (inactive)
- GI50 (MCF7): 13.1 µM (inactive)
- GI50 (CAKI-1): 15.3 µM (inactive)
- GI50 (TK-10): 11.7 µM (inactive)
- GI50 (SF-539): 12.4 µM (inactive)
- GI50 (OVCAR-4): 15.7 µM (inactive)
- GI50 (SNB-75): 2.39 µM (inactive)
- GI50 (HCT-116): 7.91 µM (inactive)

Structure (SMILES): COc1cc(OC)cc(-n2c(N)c(C#N)c3ccc([N+](=O)[O-])cc3c2=O)c1
- GI50 (BT-549): 31.2 µM (inactive)
- GI50 (HOP-92): 19.1 µM (inactive)
- GI50 (T47D): 33.7 µM (inactive)
- GI50 (RPMI-8226): 85.7 µM (inactive)
- GI50 (SK-MEL-28): 43.1 µM (inactive)
- GI50 (SN12C): 20.4 µM (inactive)
- GI50 (SK-MEL-2): 41.2 µM (inactive)
- GI50 (NCI/ADR-RES): 41.8 µM (inactive)
- GI50 (MDA-MB-435): 63.2 µM (inactive)
- GI50 (SF-268): 32.4 µM (inactive)
- GI50 (SW-620): > 100 µM (inactive)
- GI50 (CAKI-1): 30.8 µM (inactive)
- GI50 (TK-10): 34.2 µM (inactive)
- GI50 (SR): 14.2 µM (inactive)
- GI50 (OVCAR-4): 16.6 µM (inactive)
- GI50 (SNB-75): 19.7 µM (inactive)
- GI50 (HCT-116): 93.5 µM (inactive)

Structure (SMILES): O=C(CSCC(=O)N/N=C/c1cccc(C(F)(F)F)c1)N/N=C/c1cccc(C(F)(F)F)c1
- GI50 (BT-549): > 100 µM (inactive)
- GI50 (HOP-92): > 100 µM (inactive)
- GI50 (T47D): > 100 µM (inactive)
- GI50 (SK-MEL-28): > 100 µM (inactive)
- GI50 (SK-MEL-2): > 100 µM (inactive)
- GI50 (NCI/ADR-RES): > 100 µM (inactive)
- GI50 (MDA-MB-435): > 100 µM (inactive)
- GI50 (SF-268): > 100 µM (inactive)
- GI50 (MCF7): > 100 µM (inactive)
- GI50 (CAKI-1): > 100 µM (inactive)
- GI50 (TK-10): > 100 µM (inactive)
- GI50 (SF-539): > 100 µM (inactive)
- GI50 (SNB-75): > 100 µM (inactive)

Structure (SMILES): CC(Nc1cc(Cl)cc(Cl)c1)c1ccncc1 (configuration not stated)
- GI50 (BT-549): 22.4 µM (inactive)
- GI50 (T47D): 7.85 µM (inactive)
- GI50 (RPMI-8226): 18.2 µM (inactive)
- GI50 (SK-MEL-28): 30.6 µM (inactive)
- GI50 (SN12C): > 10 µM (inactive)
- GI50 (SK-MEL-2): > 10 µM (inactive)
- GI50 (MOLT-4): 13.9 µM (inactive)
- GI50 (NCI/ADR-RES): 20.5 µM (inactive)
- GI50 (MDA-MB-435): 22.2 µM (inactive)
- GI50 (SF-268): 17.9 µM (inactive)
- GI50 (SW-620): 17.4 µM (inactive)
- GI50 (MCF7): 16.2 µM (inactive)
- GI50 (CAKI-1): 17.2 µM (inactive)
- GI50 (TK-10): 41.8 µM (inactive)
- GI50 (SF-539): 21.8 µM (inactive)
- GI50 (OVCAR-4): 38.9 µM (inactive)
- GI50 (SNB-75): 23.3 µM (inactive)
- GI50 (HCT-116): 14.8 µM (inactive)

Structure (SMILES): CON(C(=O)OC(C)(C)C)c1ccccc1
- GI50 (BT-549): 43.6 µM (inactive)
- GI50 (HOP-92): > 100 µM (inactive)
- GI50 (T47D): > 100 µM (inactive)
- GI50 (RPMI-8226): > 100 µM (inactive)
- GI50 (SK-MEL-28): > 100 µM (inactive)
- GI50 (SK-MEL-2): > 100 µM (inactive)
- GI50 (MOLT-4): > 100 µM (inactive)
- GI50 (NCI/ADR-RES): > 100 µM (inactive)
- GI50 (MDA-MB-435): > 100 µM (inactive)
- GI50 (SF-268): > 100 µM (inactive)
- GI50 (SW-620): > 100 µM (inactive)
- GI50 (CAKI-1): > 100 µM (inactive)
- GI50 (TK-10): > 100 µM (inactive)
- GI50 (SR): > 100 µM (inactive)
- GI50 (OVCAR-4): > 100 µM (inactive)
- GI50 (SNB-75): > 100 µM (inactive)
- GI50 (HCT-116): > 100 µM (inactive)

Reference: ChEMBL document CHEMBL1201862, “PubChem BioAssay data set” (2004)
